Measured values as given in US20230357179A1, “RAF KINASE INHIBITORS AND METHODS OF USE THEREOF” (Deciphera Pharmaceuticals, LLC, priority 2021, published 2023).

Experiments:
Miapaca-2 cells = assay: MiaPaca-2 combination cell proliferation assay (1) with cobimetinib, 96-well; format: cell-based; settings: inhibition of cell proliferation, read-out: MiaPaca-2 Combo (1) IC50
Description: MiaPaca-2 Combination Cell proliferation Assay (1)
Miapaca-2 cells (catalog #CRL-1420) are obtained from the American Type Culture Collect (ATCC, Manassas, VA). Briefly, cells were grown in DMEM supplemented with 10% characterized fetal bovine serum (Invitrogen, Carlsbad, CA), 2.5% New Zealand sourced horse serum and 1% Penicillin/Streptomycin/L-Glutamine at 37° C., 5% CO2, and 95% humidity. Cells are expanded until reaching 70-95% confluency at which point they are subcultured or harvested for assay use. A serial dilution of test compound was dispensed into multiple 96-well black clear bottom plates in triplicate. A serial dilution of complete growth medium containing cobimetinib was prepared at twice the final concentration and 100 μL was dispensed across the test compound titration in triplicate. Three thousand cells are added per well in 100 μL complete growth medium in each 96-well plate. Plates are incubated for 67-72 hours at 37° C., 5% CO2, and 95% humidity. At the end of the incubation, 40 μL of a 440 μM solution of resazurin (Sigma, St. Louis, MO) in PBS is added to each well of the plate and plates are incubated for an additional 5-7 hours at 37° C., 5% CO2, and 95% humidity. Plates are read on a Synergy2 or equivalent reader (Biotek, Winooski VT) using an excitation of 540 nm and an emission of 600 nm. Drug synergy was assessed via BLISS analysis in the Combenefit software (Cancer Research UK Cambridge Institute, Cambridge, UK). Data is analyzed using Prism software (GraphPad, San Diego, CA) to calculate IC50 values. Shifts in test compound IC50 values are reported from top-constrained combination therapy curves.

WM3629 cells = assay: WM3629 cell proliferation assay (2), resazurin, 384-well; format: cell-based; settings: inhibition of cell proliferation, 67-72 hours
Description: WM3629 Cell Proliferation Assay (2)
WM3629 cells (#WM3629-01-0001) are obtained from Rockland Immunochemicals Inc (Gilbertsville, PA). Briefly, cells were grown in MCDB 153 medium (Sigma, #M7403, St. Louis, MO) supplemented with 20% Leibovitz's L-15 (ThermoFisher #11415-064, Waltham, MA), 2% heat inactivated fetal bovine serum (ThermoFisher, #A3840001, Waltham, MA), 5 μg/mL Insulin (Bovine Pancreas) (Sigma, #I0516, St. Louis, MO), 1.68 mM Calcium Chloride (Sigma, #C-34006, St. Louis, MO) and 1% Penicillin/Streptomycin/L-Glutamine (ThermoFisher #10378016, Waltham, MA) at 37° C., 5% CO2, and 95% humidity. Cells are expanded until reaching 70-95% confluency at which point they are sub-cultured or harvested for assay use. Using the Beckman Coulter Echo 650, a serial dilution of test compound is dispensed into a 384-well black clear bottom plate in triplicate. One thousand one hundred twenty-five cells are added per well in 50 μL complete growth medium in the 384-well plate. Plates are incubated for 67-72 hours at 37° C., 5% CO2, and 95% humidity. […] Plates are read on a Synergy2 or equivalent reader (Biotek, Winooski VT) using an excitation of 540 nm and an emission of 600 nm. Data is analyzed using Prism software (GraphPad, San Diego, CA) to calculate IC50 values.

Row | IC50 (Miapaca-2 cells) | SMILES | IC50 (WM3629 cells)
1 | 100 to 500 nM | Cc1cc(F)c(NC(=O)NCCC2(C)CC2)cc1-c1cc(OCCO)nc(-c2ccnc3[nH]ncc23)c1 [Example 87] | –
2 | – | CNC(=O)c1cc(-c2cc(-c3cc(NC(=O)N4CC[C@H](C(F)(F)F)C4)ccc3C)ccn2)ccn1 [Example 215] | 500 to 1000 nM
3 | – | CNC(=O)c1cc(-c2cncc(-c3cc(NC(=O)N4CC[C@H](C(F)(F)F)C4)ccc3C)c2)ccn1 [Example 228] | 1000 to 10000 nM
